Molecular target: T1, Human Type I Steroid 5α-Reductase (Homo sapiens, UniProt P18405)
T1 construct: Scalp punch biopsies from graft recipient sites were obtained; from tissue; host or cells: human scalp punch biopsies (hair transplant graft recipient sites), homogenate, resuspended 100,000×g pellet
T1 sequence (P18405 1-259): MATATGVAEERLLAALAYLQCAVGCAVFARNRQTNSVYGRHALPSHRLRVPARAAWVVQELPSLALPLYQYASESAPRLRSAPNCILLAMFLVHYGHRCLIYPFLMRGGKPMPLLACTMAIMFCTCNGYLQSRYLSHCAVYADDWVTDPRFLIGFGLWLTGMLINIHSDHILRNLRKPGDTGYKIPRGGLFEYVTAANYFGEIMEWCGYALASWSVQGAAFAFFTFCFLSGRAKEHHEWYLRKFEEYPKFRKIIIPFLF
Test: Human 5α-Reductase Homogenate Assay (Type I, human scalp): conversion of [3H]-testosterone to 5α-reduced metabolites
Format: biochemical
Settings: 0.3 μM test compound, compared to control reaction mixtures; 50 nM [3H]-testosterone, pH 7.5, 25°, 180 min
Excerpt: Methodology of Human Type I Steroid 5α-Reductase Assays
Approximately 60-75 punches from one surgical procedure were used to generate an enzyme preparation. The subcutaneous tissue was cut away and discarded. The skin was frozen with liquid nitrogen and pulverized to powder. […] The homogenization procedure consisted of four 15 second pulses. Connective tissue was cleared from the probe with forceps between pulses. […] The pellet was resuspended by homogenization with a Dounce homogenizer using the same buffer solution. An aliquot was taken for protein determination by the Lowry method, Lowry, et al., Protein Measurement with the Folin Phenol Reagent, J. Biol. Chem., 193, 265-75 (1951). Aliquots of the enzyme preparation were stored at -80° until use.
The reaction was initiated by the addition of 0.5 mg of Type I 5α-reductase. The reaction mixture was incubated at 25° for 180 min, and terminated by the addition of 1 mL ice-cold stopping solution. […] The samples were prepared for high performance liquid chromatography by solid phase extraction. […] The reaction mixtures were then applied to the columns. The columns were subsequently washed with 5 mL of acetone:water (1:4), followed by 0.3 mL of methanol. The samples were then eluted with 3 mL of methanol and collected in 20 mL scintillation vials. […] The column temperature was maintained at 35° and the flow rate was 1.5 mL/min.

percent inhibition of Type I 5AR [%] | Compound
11 | C[C@]12CCC(=O)N[C@@H]1CCc1cc(-c3cnc4ccccc4c3)ccc12 [Example 196, (+)-(4aR)-(10bR)-8-(3-quinolinyl)-10b-methyl-1,2,3,4,4a,5,6,10b-octahydrobenzo[f]quinolin-3-one]
90 | (+)-(4aR)-(10bR)-4-methyl-8-benzyloxycarbonyl-10b-methyl-1,2,3,4,4a,5,6,10b-octahydrobenzo[f]quinolin-3-one [Example 144]
80 | CN1C(=O)CC[C@]2(C)c3ccc(Sc4nc5c(ccc6ccccc65)s4)cc3CC[C@@H]12 [Example 163, (+)-(4aR)-(10bR)-4-methyl-8-(2-naphtho<1,2-d>-thiazolylthio)-10b-methyl-1,2,3,4,4a,5,6,10b-octahydrobenzo[f]-quinolin-3-one]
86 | CN1C(=O)CC[C@]2(C)c3ccc(-c4ccc(-c5ccc(NC(=O)C(C)(C)C)s5)cc4)cc3CC[C@@H]12 [Example 222, (+)-(4aR)-(10bR)-4-methyl-8-(4-[(2-t-butylcarbonylamino]-5-thienyl]phenyl)-10b-methyl-1,2,3,4,4a,5,6,10b-octahydrobenzo[f]quinolin-3-one]

Compound | percent inhibition of Type I 5AR [%]
CN1C(=O)CC[C@]2(C)c3ccc(C=Cc4ccccc4)cc3CC[C@@H]12 [Example 285, (4aR)-(10bR)-4,10b-dimethyl-8-(2-phenylethenyl)-1,2,3,4,4a,5,6,10b-octahydrobenzo[f]quinolin-3-one] | 93
